Key:
murine splenic B cells = experiment: Induction into apoptosis of splenic B cells of naïve mice by CD4+ T cells expanded with peptide (annexin V / 7-AAD Facs); type: cell-based, C57BI/6 mice
Procedure: FIG. 1. The bars in this Figure illustrate the viability of murine splenic B cells incubated under different conditions and evaluated by Facs analysis of annexin V binding and 7-AAD (two markers of apoptosis). • B (wt-pep): murine splenic B cells incubated with natural (wild-type) T-cell epitope derived from human anti-fVIII antibody; • B (cc-pep): murine splenic B cells incubated with T-cell epitope derived from human anti-fVIII antibody, wherein said T-cell epitope is modified by attaching the amino acids CHGC (SEQ ID NO: 20) to the N-terminus of the epitope; • B (cc-pep)+ T (cc-pep): murine splenic B cells incubated with modified anti-fVIII antibody T-cell epitope and with T cells expanded with modified T-cell epitope (modification as in “B (cc-pep)”); • B (wt-pep)+ T (cc-pep): murine splenic B cells incubated with wild-type anti-fVIII antibody T-cell epitope and T cells expanded with the corresponding modified T-cell epitope.
It was determined whether naïve B cells presenting a class II restricted T cell epitope derived from a BCR idiotype could be deleted by recognition and activation of T cells elicited to a specific anti-factor VIII antibody carrying the same idiotype. […]

[1] = system: CFSE-labelled CD4(F8-) effector CD4+ T cells; experiment: Apoptosis of factor VIII-specific effector CD4+ T cells by cytolytic CD4+ T cells elicited with modified factor VIII epitope (Annexin V / 7-AAD); type: cell-based, factor VIII KO mice; settings: APC (spleen B cells) loaded with 5 μg/ml huFVIII and 1 µM peptide, 72 h at 37° C., baseline mortality subtracted
From the text: FIG. 2. Apoptosis of allofactor-specific effector T-cells by cytolytic CD4+ T-cells induced by a T-cell epitope derived from said allofactor and modified by attaching a thioreductase motif. The allofactor used was factor VIII. See Example 5 for more details.
Polyclonal effector CD4+ T cells were obtained from the spleen of factor VIII KO mice immunised with 2 IU of recombinant human FVIII (CD4(F8-)) and purified using anti-CD4 magnetic beads. The cells were then labelled with CFSE.
Induction of apoptosis as measured by of CFSE-labelled cells was then measured by Annexin V and 7-AAD staining after incubating such cells with APC (spleen B cells) loaded with 5 μg/ml huFVIII and 1 µM of peptide of SEQ ID NO:5 (CGHCGGFTNMFATWSPSK, corresponding to the 2196-2207 amino acid sequence of the C2 domain of human factor VIII, modified by addition of a thioreductase motif (underlined) separated by 2 glycines from the Factor VIII T-cell epitope). Apoptosis was measured after 72 h culture at 37° C. When CFSE-labelled CD4(F8-) cells were co-cultured with CD4+ T cells obtained from mice immunised with a synthetic peptide of SEQ ID NO:5 (cytolytic CD4+ T cells), significant apoptosis was induced. […] When CFSE-labelled CD4(F8−) cells were co-cultured in the presence of a double number of unlabeled CD4(F8−) cells, no apoptosis was induced (“CD4(F8−)” caption in FIG. 2). […]

YCAVPDDPDA (T-cell epitope of CDR3 of anti-factor VIII antibody BO2C11) [SEQ ID NO:1, reference compound]
influence on the survival of control B cells of T cells expanded with the peptide (murine splenic B cells; incubation period of 18 h, data not shown): no or only little influence

CHGCYCAVPDPDA (modified T-cell epitope of CDR3 of anti-factor VIII antibody BO2C11; MISC_FEATURE - thioreductase motif) [SEQ ID NO:2]
induction into apoptosis of B cells by T cells expanded with the peptide (murine splenic B cells; B cells loaded with either peptide of SEQ ID NO:1 or SEQ ID NO:2, FIG. 1): induced into apoptosis

CGHCGGFTNMFATWSPSK (modified human factor VIII T-cell epitope; MISC_FEATURE - thioreductase motif; MISC_FEATURE - Gly-Gly-linker) [SEQ ID NO:5]
apoptosis of CFSE-labelled CD4(F8-) cells co-cultured with cytolytic CD4+ T cells from mice immunised with the peptide ([1]; CD4(F8+) pool1): 6.6% | apoptosis of CFSE-labelled CD4(F8-) cells co-cultured with cytolytic CD4+ T cells from mice immunised with the peptide ([1]; CD4(F8+)pool2): 8.4%
